According to patent US11612634B2 (priority 2020, dated 2023):

Assays:
[1] = tested on: Carr-induced inflammatory pain rat model; test: Analgesic effect on mechanical hyperalgesia (PWT) in Carr-induced inflammatory pain rat model; type: in vivo; settings: 2 μg/kg i.d. plantar, every 2 h, six injections
Protocol: The mechanical hyperalgesia of rats was measured by 38500-pressure application measurement (PAM) system (Ugo Basile Biological Research Apparatus, Comerio-Varese, Italy), which consisted of a hand-held part and an integrated electronic part. The hand-held part was a force sensor which was designed according to a Randall-Selitto algesimeter. The integrated electronic part was configured to automatically record a maximum PWT applied to the left hind paw of the rats.
The Carr-induced inflammatory pain model was built according to a published method (Alessandri-Haber N, et al. Neurosci. Vol 29(19), pp. 6217-6288, 2009) for evaluating an analgesic effect of drugs administered by intraplantar injection. […] Those rats with a PWT lower than 100 gf were considered to be a desired Carr-induced inflammatory pain model, those rats with the PWT higher than 100 gf was removed.
(S1) A total of 18 healthy adult SD rats, weighing 180-220 g, were selected, numbered on tails and placed in the same cage.
(S2) The rats were maintained in a measuring room for 2 h for adaptation.
The measurement was repeated 3-5 times for each rat with an interval of 5-10 min. The results of multiple PWT measurements were averaged as the Baseline (BL) (unit: g). After that, 6 μL of 1 wt % Carr was intradermally injected into the plantar surface of the hind paw to build an inflammatory pain rat model.
(S4) The PWT of the left hind paw of each rat was measured 1 h after the Carr injection. Rats with a higher inflammatory threshold and rats with a lower inflammatory threshold were mixed and equally divided into three groups (group A, group B and group C), each for six rats, such that any two groups of rats had similar distribution of inflammatory threshold. The groups A, B and C were intradermally injected with normal saline, 5 mg/kg of morphine and 2 μg/kg of the short peptide P10581, respectively, at the plantar surface of the left hind paw. 1 h later, the PWT of the left hind paw of the rats in each group was measured 3-5 times at an interval of 5-10 min. The multiple PWT measurement results were averaged as the practical PWT (unit: g). Then the drug was injected every 2 h according to the above-mentioned administration dose and time, and the corresponding PWT was recorded (six injections in total).
(§1) (1) 24 healthy adult SD rats, weighing 180-220 g, were selected, reinjected with 6 μL of a 1 wt % Carr solution and divided into 4 groups randomly and averagely (i.e., groups A-D). The group A was injected with normal saline; the group B was intradermally injected with 0.1 μg/kg of the short peptide P10581 through the plantar surface of the left hind paw; the group C was intradermally injected with 0.1 μg/kg of the short peptide P10581 and then with 5 mg/kg of morphine 30 min later through the plantar surface of the left hind paw; and the group D was intradermally injected with 0.05 μg/kg of the short peptide P10581, and then with 5 mg/kg of morphine 30 min later through the plantar surface of the left hind paw. 1 h later, the PWT of each group was recorded when the mechanical withdrawal of the left hind paw occurred, and each rat was measured 3-5 times at an interval of 5-10 min.
(§2) (2) The drug was injected every 2 h according to the above-mentioned administration dose and time (seven times in total), and the PWT was recorded.
(S1) A total of 20 healthy adult SD rats (half male and half female), weighing 180-220 g, were selected, numbered on tails and transferred to the same cage.
(S4) The PWT of the left hind paw of each rat was measured 1 h after the Carr injection.

[2] = tested on: morphine analgesic tolerance, inflammatory pain rat model; test: Effect on morphine analgesic tolerance in Carr-induced inflammatory pain rat model; type: in vivo; settings: for effect of cysteine-mutated peptide on morphine analgesic tolerance: Carr model, with morphine, dose not given
Protocol: The Carr-induced inflammatory pain model was built according to a published method (Alessandri-Haber N, et al. Neurosci. Vol 29(19), pp. 6217-6288, 2009) for evaluating an analgesic effect of drugs administered by intraplantar injection. Specifically, 6 μL of 1 wt % Carr solution was injected into the rats between the 2nd and 3rd toes of a left hind paw to induce hyperalgesia, which was manifested as plantar swelling and a declined pain threshold of the rats within 1 hour after the injection. Those rats with a PWT lower than 100 gf were considered to be a desired Carr-induced inflammatory pain model, those rats with the PWT higher than 100 gf was removed.
as §1, §2
(S1) By means of molecular biological techniques, two cysteine residues (Cys10 and Cys11) in the short peptide P10581 were replaced with alanine (Ala), and the resulting peptide was named P10581-1 (SEQ ID NO: 2).
(S2) Three cysteine residues (Cys10, Cys11 and Cys17) in the short peptide P10581 were replaced with alanine (Ala), and the resulting peptide was named P10581-2 (SEQ ID NO: 3).
The rat was injected with 6 μL of 1 wt % Carr to establish a Carr-induced inflammatory pain model, and the effect of the short peptides P10581, P10581-1 and P10581-2 on the morphine analgesic tolerance was analyzed according to Experimental Example 1. […]

Sequence | analgesic effect on Carr-induced inflammatory pain threshold (PWT) [1] | analgesic tolerance after repeated injection [1] | effect on morphine analgesic tolerance ([2]; 0.1 μg/kg peptide i.d. 30 min before 5 mg/kg morphine, every 2 h) | effect of cysteine-mutated peptide on morphine analgesic tolerance [2] | decrease in the analgesic effect compared to P10581 ([2]; after 8 injections, with morphine (FIG. 5C))
WKCNPNDDKCR [P10583, comparative short peptide, reference compound] | completely reverse the Carr-induced inflammatory pain threshold | without developing the analgesic tolerance | no relieving effect | – | –
WKCNPNDDKAARPKLKA [P10581-2, P10581 with Cys10, Cys11 and Cys17 replaced with alanine] | – | – | – | no relieving effect on the morphine analgesic tolerance | –
WKCNPNDDKAARPKLKC [P10581-1, P10581 with Cys10 and Cys11 replaced with alanine] | – | – | – | merely partially relieve the morphine analgesic tolerance | 57.6%
